The target in the assay is T1, 5-Lipoxygenase (Homo sapiens, UniProt P09917).
T1 construct: Human peripheral blood mononuclear leukocytes (PBML) were isolated through a Ficoll-Paque density gradient; endogenous in cells; host or cells: human peripheral blood mononuclear leukocytes (PBML)
T1 sequence (P09917 1-674): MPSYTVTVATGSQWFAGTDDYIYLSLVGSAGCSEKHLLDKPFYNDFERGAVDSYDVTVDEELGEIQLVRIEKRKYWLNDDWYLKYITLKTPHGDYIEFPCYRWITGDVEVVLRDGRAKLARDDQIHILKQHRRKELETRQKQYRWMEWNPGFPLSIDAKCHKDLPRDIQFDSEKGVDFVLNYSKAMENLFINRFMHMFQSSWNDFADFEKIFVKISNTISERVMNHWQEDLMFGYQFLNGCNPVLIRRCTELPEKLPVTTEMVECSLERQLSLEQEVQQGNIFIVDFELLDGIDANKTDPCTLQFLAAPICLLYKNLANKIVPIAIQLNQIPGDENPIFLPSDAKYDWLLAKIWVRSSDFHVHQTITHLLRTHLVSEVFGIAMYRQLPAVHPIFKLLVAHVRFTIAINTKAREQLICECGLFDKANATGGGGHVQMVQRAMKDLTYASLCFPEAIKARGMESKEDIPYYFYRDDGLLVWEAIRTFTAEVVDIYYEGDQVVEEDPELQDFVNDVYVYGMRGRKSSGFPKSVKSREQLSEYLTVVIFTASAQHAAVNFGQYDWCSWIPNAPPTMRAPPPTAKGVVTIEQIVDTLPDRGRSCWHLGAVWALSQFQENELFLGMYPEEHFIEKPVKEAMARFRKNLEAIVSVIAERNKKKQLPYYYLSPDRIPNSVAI
The assay is described as follows: 5-Lipoxygenase inhibition in human PBML stimulated with A 23187, LTB4 measured by EIA. Type of assay: cell-based. From the text:
Methods employed in this example were adapted from the scientific literature to maximize reliability and reproducibility. […] 110-13 (2000).
In this study, the 5-LOX source was human peripheral blood mononuclear cells (PBMNC) and the substrate was arachidonic acid having a general reaction of: arachidonic acid→5-LOX→5-HPETE→LTB4. Human peripheral blood mononuclear leukocytes (PBML) were isolated through a Ficoll-Paque density gradient. The inhibiting agent was processed Morinda citrifolia puree juice concentrate. Morinda citrifolia was pre-incubated with PBML (5×10^6 cell/ml) in HBSS buffer pH 7.4 at 37° C. for 15 minutes. […] Following neutralization with NaOH and centrifugation, the supernatant LTB4 is measured using an EIA kit.
The supernatant sample was utilized in same assay and protocols as outlined in Example One above, wherein the brown substance obtained was substituted for Morinda citrifolia puree juice.

Each structure is given as a SMILES string. “And” between values parts separate entries of the source, which are not always exact repeats. Equal values may be shown once.

As to `CC(Cc1ccc(O)c(O)c1)C(C)Cc1ccc(O)c(O)c1` (centres unmarked) [NDGA, nordihydroguaretic acid], the Product was 3608.3 pg/well and 3403.4 pg/well (0.03 uM); 2433.3 pg/well (0.1 uM); 1083.1 pg/well and 1106.1 pg/well (0.3 uM); 233.7 pg/well and 217.9 pg/well (1 uM); 134.9 pg/well and 94.3 pg/well (3 uM).

(Values after patent publication US20070184135A1, “Morinda citrifolia-based formulation 5-LOX and 15-LOX” (priority 2003, published 2007).)
